Data reported in PubChem BioAssay (NCI).
Where “and” joins values, the source holds several entries; their conditions need not be identical. Equal values may be shown once.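 Values below derive from 48-hour exposures of cells grown in 96-well plates, with endpoints linearly interpolated between the two concentrations bracketing the appropriate inhibition level. Here, GI50 denotes the concentration required for 50% inhibition of growth. At the TGI there is no net growth.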 Where a SMILES comes first, the peptide text is derived from it. [ ]: non-standard residue; d: D form. The star is where a group is joined. ξ: configuration not given here. NMeY = CN[C@@H](Cc1ccc(O)cc1)C(=O)O; Cbz = O=C(OCc1ccccc1)*; ξA = CC(N)C(=O)O

What was measured:
Assay in all cases: growth of human tumour cells (NCI), 48 h
UACC-257 melanoma = test system: UACC-257 melanoma
SNB-19 CNS = test system: SNB-19 CNS
MDA-MB-435 = test system: MDA-MB-435
KM12 colon = test system: KM12 colon
MDA-N = test system: MDA-N
HT29 colon = test system: HT29 colon
HCC-2998 colon = test system: HCC-2998 colon
NCI-H460 lung = test system: NCI-H460 lung
SK-OV-3 ovarian = test system: SK-OV-3 ovarian
RXF 393 renal = test system: RXF 393 renal

Structure (SMILES)	TGI (UACC-257 melanoma)	TGI (SNB-19 CNS)	TGI (MDA-MB-435)	TGI (KM12 colon)	TGI (MDA-N)	TGI (HT29 colon)	TGI (HCC-2998 colon)	TGI (NCI-H460 lung)	TGI (SK-OV-3 ovarian)	TGI (RXF 393 renal)	GI50 (UACC-257 melanoma)	GI50 (SNB-19 CNS)	GI50 (MDA-MB-435)	GI50 (KM12 colon)	GI50 (MDA-N)	GI50 (HT29 colon)	GI50 (HCC-2998 colon)	GI50 (NCI-H460 lung)	GI50 (RXF 393 renal)
O=c1oc2ccccc2cc1-c1nc2ccc([N+](=O)[O-])cc2o1	> 100 µM	68.5 µM	> 100 µM	> 100 µM	> 100 µM	> 100 µM	> 100 µM	> 100 µM	> 100 µM	> 100 µM									
O=C1/C(=C/c2cccc(Oc3ccccc3)c2)N=C(c2ccccc2)N1c1nc2ccc(Sc3ccccc3)cc2[nH]1	85.6 µM	> 100 µM	33.1 µM	> 100 µM	35.8 µM	63.2 µM	26.3 µM	64 µM	> 100 µM	> 100 µM									
Oc1ccc2ccccc2c1-c1nnc(CCCCCCCCc2nnc(-c3c(O)ccc4ccccc34)o2)o1	25 µM and > 100 µM	25 µM and > 100 µM	25 µM and > 100 µM	25 µM and > 100 µM			11.9 µM and > 62.1 µM	25 µM and > 47.2 µM	> 100 µM	7.93 µM and 31.8 µM	2.26 µM	17.6 µM	3.5 µM	3.96 µM	2.67 µM	0.36 µM	5.04 µM	0.715 µM	1.39 µM
CN(C)c1ccc(/C=C(\NC(=O)c2ccccc2)C(=O)Nc2ccccc2C(=O)NN2C(=O)CSC2c2ccc(N(C)C)cc2)cc1 (configuration not stated)	32.2 µM	> 100 µM	> 100 µM	> 100 µM	> 100 µM	> 100 µM	21.4 µM	31.7 µM	> 100 µM	> 100 µM									
Cc1[nH]c(=O)nc(N/N=C/c2ccc(Cl)c(Cl)c2)c1C(=O)Nc1ccc(Cl)c(Cl)c1	> 41 µM	32 µM	> 39.5 µM	> 22.2 µM	39.7 µM	> 46.5 µM	> 100 µM	> 49.6 µM	26.9 µM	32.7 µM									
O=C(Cn1c2ccc(Br)cc2c2nc3ccccc3nc21)NC1CCCCC1	> 100 µM	> 100 µM	> 100 µM	> 100 µM	> 100 µM	> 100 µM	> 100 µM	> 100 µM	> 100 µM	> 100 µM									
O=S1(=O)NNC(=NCc2ccc(F)cc2)c2ccccc21	> 100 µM	> 100 µM	> 100 µM	> 100 µM	> 100 µM	> 100 µM	> 100 µM	> 31.6 µM	> 100 µM	> 69.3 µM									
N#Cc1c(N)c(-c2ccc(Cl)cc2)c(F)c2ccccc12	> 100 µM	> 100 µM	> 100 µM	> 100 µM	> 100 µM	> 100 µM	> 100 µM	> 100 µM	> 100 µM	58.3 µM									
CC1=NN(c2ccc(C)cc2)C2(C1)SCC(=O)N2c1nc2ccccc2s1 (configuration not stated)	55.1 µM	> 100 µM	> 100 µM	> 100 µM	70.2 µM	> 100 µM	48.3 µM	56.5 µM	> 100 µM	54.8 µM									
COc1ccccc1C(=O)c1c(N2CCCCC2)c(=O)c1=O	> 100 µM	> 100 µM	> 100 µM	> 100 µM	> 100 µM	> 100 µM	> 100 µM	> 100 µM	> 100 µM	> 100 µM									
O=C1c2cc3c(cc2CC12Cc1cc4c(cc1C2)CCC4)CCC3	> 100 µM	> 100 µM	> 100 µM	> 100 µM	> 100 µM	> 100 µM	> 100 µM	> 100 µM	> 100 µM	> 100 µM									
O=C1C/C(=C\O)C(=O)c2ccccc2N1	> 100 µM	> 100 µM	> 100 µM	> 100 µM	> 100 µM	> 100 µM	> 100 µM	> 100 µM	> 100 µM	> 100 µM									
CNc1ccc2nc(-c3ccc(OC(=O)N(C)C)cc3)cn2c1	> 100 µM	29.6 µM	30.7 µM	32.3 µM	38 µM	34 µM	81.2 µM	34.4 µM	33 µM	26.1 µM									
N#Cc1c(=O)c2cccnc2n2c1[nH]c1ccccc12	> 100 µM	> 100 µM	> 100 µM	> 100 µM	> 100 µM	> 100 µM	> 100 µM	> 100 µM	> 100 µM	> 100 µM									
O=C1c2cc([N+](=O)[O-])ccc2NC2C(O)c3ccccc3N12 (configuration not stated)	55.3 µM	> 100 µM	> 100 µM	> 100 µM	> 100 µM	> 100 µM	> 100 µM	97 µM	36 µM	34.5 µM									
O=C(c1ccccc1F)c1c(NCc2ccccc2)c(=O)c1=O	> 100 µM	> 100 µM	> 100 µM	> 100 µM	> 100 µM	> 100 µM	> 100 µM	> 100 µM	> 100 µM	> 100 µM									
CN(C)c1ccc(-c2nc(-c3cc4c(ccc5ccccc54)oc3=O)cs2)cc1	> 100 µM	> 100 µM	> 100 µM	> 100 µM	> 100 µM	> 100 µM	> 100 µM	> 100 µM	> 100 µM	> 100 µM									

Structure (SMILES)	TGI (UACC-257 melanoma)	TGI (SNB-19 CNS)	TGI (MDA-MB-435)	TGI (KM12 colon)	TGI (MDA-N)	TGI (HT29 colon)	TGI (HCC-2998 colon)	TGI (NCI-H460 lung)	TGI (SK-OV-3 ovarian)	TGI (RXF 393 renal)	GI50 (UACC-257 melanoma)	GI50 (SNB-19 CNS)	GI50 (MDA-MB-435)	GI50 (KM12 colon)	GI50 (MDA-N)	GI50 (HT29 colon)	GI50 (HCC-2998 colon)	GI50 (NCI-H460 lung)	GI50 (RXF 393 renal)
COc1ccc(C[C@@H](C(=O)NCC(N)=O)N(C)C(=O)[C@@H]2CCCN2C(=O)[C@H](CC(C)C)NC(=O)C(C)NC(=O)OCc2ccccc2)cc1 (some centres not stated) (Cbz-[ξA]LP[NMeY](Me)G-NH2)	> 100 µM	> 100 µM	> 100 µM	> 100 µM	> 100 µM	> 100 µM	> 100 µM	> 100 µM	> 100 µM	> 100 µM									
OC(CC(c1ccccc1)c1ccc(Cl)cc1)c1ccc(Cl)cc1 (configuration not stated)	> 100 µM	> 100 µM	91.5 µM	> 100 µM	> 100 µM	> 100 µM	> 100 µM	> 100 µM	90.8 µM	65.8 µM									
CCOC(=O)c1cc(-c2ccc(OC)c(OC)c2)c[nH]1	> 10 µM	> 10 µM	> 10 µM	> 10 µM	> 10 µM	> 10 µM	> 10 µM	> 10 µM	> 10 µM	> 10 µM									
CCOC(=O)C1C/C(C)=C(/C)SCCCS1 (configuration not stated)	> 100 µM	> 100 µM	> 100 µM	> 100 µM	> 100 µM	> 100 µM	> 100 µM	> 100 µM	> 100 µM	> 100 µM									
CN(C)c1ccc(C(=NNC(=O)c2cc3ccccc3[nH]2)c2ccc(N(C)C)cc2)cc1	> 100 µM	> 44.5 µM	0.371 µM	> 100 µM	1.49 µM	9.93 µM	1.48 µM	> 100 µM	> 87.7 µM	15 µM									
O=C1c2cc(Cl)ccc2-n2c(noc2=O)C2CSCN12 (configuration not stated)	> 100 µM	> 100 µM	> 100 µM	> 100 µM	> 100 µM	> 100 µM	> 100 µM	> 100 µM	> 100 µM	> 100 µM									
COc1ccc(Cn2nc(OCc3ccccn3)c3cc([N+](=O)[O-])ccc32)cc1	> 100 µM	> 100 µM	> 100 µM	> 100 µM	> 100 µM	> 100 µM	> 100 µM	> 100 µM	> 100 µM	> 100 µM									
Cn1c(N)c(/C=N/NC(=O)CC#N)c(=O)n(C)c1=O	> 100 µM	> 100 µM	> 100 µM	> 100 µM	> 100 µM	> 100 µM	> 100 µM	> 100 µM	> 100 µM	> 100 µM									
CC(C)=CC(=O)O[C@@H]1CC(C)(C)CC2C3=CCC4[C@]56CC[C@](O)(OC5)C(C)(C)C6CC[C@@]4(C)C3(C)CC[C@]21C(=O)O (some centres not stated)	> 100 µM	> 100 µM	> 100 µM	> 100 µM	> 100 µM	> 100 µM	> 100 µM	> 100 µM	> 100 µM	> 100 µM									
C#CC(C)(C)Oc1cc(OC)c2c(=O)c3ccccc3n(C)c2c1	26.4 µM	93.8 µM	26.9 µM	37.8 µM	31.1 µM	> 100 µM	> 100 µM	36 µM	54.9 µM	84.8 µM									
CSc1c(C(C)=O)c(O)n(-c2ccc(Cl)cc2)c(=O)c1C#N	> 100 µM	> 100 µM	> 100 µM	> 100 µM	> 100 µM	> 100 µM	> 100 µM	> 100 µM	> 100 µM	> 100 µM									
CC(C)=CCN(N=O)c1ncnc2nc[nH]c12	> 100 µM	> 100 µM	> 100 µM	> 100 µM	> 100 µM	> 100 µM	> 100 µM	> 100 µM	> 100 µM	> 100 µM									
CC1=NNC(N)=N/C1=C/C(Sc1ccc(Cl)cc1)c1cccs1 (configuration not stated)	45.5 µM	85.7 µM	55.3 µM	23.1 µM	85 µM	25.4 µM	26.9 µM	30.5 µM	26.4 µM	34.7 µM									
CCOC(=O)CCC(NC(=O)OCc1ccccc1)C(=O)NNC(=O)OC(C)(C)C (configuration not stated)	> 100 µM	> 100 µM	> 100 µM	> 100 µM	> 100 µM	> 100 µM	> 100 µM	> 100 µM	> 100 µM	> 100 µM									
Cc1ccc(-c2cc(-c3ccc(Cl)cc3)nc(/N=C3\C(=O)N(CN4CCCCC4)c4ccc(Cl)cc43)n2)cc1	71.1 µM	34.7 µM	42.9 µM	35.4 µM	46.2 µM	> 100 µM	29.7 µM	> 100 µM	> 100 µM	33.2 µM									
CCCCn1cc(C(=O)O)c(=O)c2c3sccc3ccc21	> 100 µM	> 100 µM	> 100 µM	> 100 µM	> 100 µM	> 100 µM	> 100 µM	> 100 µM	> 100 µM	> 100 µM									
COc1cn2c(cc1=O)COc1ccc(-c3ccccc3)cc1-2	> 87.1 µM	> 100 µM	> 100 µM	> 100 µM	> 100 µM	> 100 µM	> 100 µM	> 100 µM	> 100 µM	> 100 µM									
